From patent publication US9351989B2, “Substituted purine nucleosides, phosphoroamidate and phosphorodiamidate derivatives for treatment of viral infections” (INHIBITEX, INC., priority 2010, dated 2016) come the findings set out here.

Structures are written as SMILES.

In series [1] the test system is HCV replicon (Genotype 1b). Put plainly: Luciferase genotype 1b replicon potency assay. The class given is cell-based. The conditions noted are these: Hepatitis C virus, Huh-7; luciferase-reporter genotype 1b subgenomic replicon cell line (Huh7); Renilla luciferase reporter activity. Here is the method: (§1) Further to the above Examples, representative compounds, prepared according to the examples were tested for potency in an HCV replicon assay (Genotype 1b) for activity against the virus (EC50) and toxicity to the cells (CC50).
Huh7 Replicon Cell Lines and Cell Culture Conditions:
(§2) A luciferase-reporter genotype 1b subgenomic replicon cell line, and a genotype 1a full-length replicon cell line were obtained from Apath, LLC, Brooklyn, N.Y.: All cell lines were passaged twice a week by splitting 4 or 6 fold. Cells were maintained in DMEM-high glucose medium (HyClone, Logan, Utah) supplemented with 9% FBS (HyClone), 2 mM glutamine (Invitrogen, Carlsbad, Calif.), 100 U/mL PenStrep (Invitrogen). Media also contained 0.25 mg/mL of the antibiotic G-418 to maintain stable expression of the replicon (Invitrogen). Incubation was performed at 37° C. in 5% CO2 atmosphere. Replicon cell lines were used until they accumulated 15-to-18 passages, after which cells were restarted from the frozen stock. Seeding cell counts were routinely determined using an automatic Cedex HiRes cell counter (Flownomics Analytical Instruments, Madison, Wis.) or manually using INCYTO C—Chip™ Disposable Hemacytometers (Fisher Scientific, Pittsburgh, Pa.).
The anti-HCV assays were done accordingly:
Luciferase Genotype 1b Replicon Potency Assay.
Replicon cells were seeded into white 96-well plates (Nunc/VWR) at a density of 2×10^4 cells/well in medium without G-418. A Stacker Multidrop Liquid Dispenser (MTX Lab Systems, Vienna, Va.) was employed to ensure uniform and fast cell seeding into multiple plates. 18-24 h after cell plating, inhibitors were added and cells were incubated for additional 24, 48, or 72 h (as indicated). Compounds were tested in triplicates and quadruplicates at 3× or 4× serial dilutions over a range of 0.0001-to-10 μM concentrations. HCV replication was monitored by Renilla luciferase reporter activity assay using Renilla luciferase reporter (Promega, Madison, Wis.) and a Veritas Luminometer (Turner Biosystems, Sunnyvale, Calif.). 50% and 90% inhibitory concentration (IC50 and IC90) values were calculated as the concentration of compound that results correspondingly in 50% and 90% decreases in the reporter expression as compared to untreated cells. The values were determined by non-linear regression (four-parameter sigmoidal curve fitting) analysis.
In general terms: A replicon is a self-replicating genome or part of one, used to study replication in cells.

A short description of series [2]: Cytotoxicity assay (CellTiter-Glo). The class given is cell-based. The conditions noted are these: human, toxicity to the cells, 72 h incubation, CellTiter-Glo cell viability. The protocol:
as §1, §2
The cell cytotoxicity assay data was obtained as described below:
Cells were seeded into 96-well plates at a density of 2×10^4 cells per well. 24 h after cell plating, 11 serial 2× compound dilutions, starting with 100 μM, were applied to the testing plates (3 repeats per compound dilution). Each testing plate was run with a “no-compound” control. Incubation with compounds was continued at 37° C. in a CO2 incubator for 72 h. To determine cell viability, the CellTiter-Glo® assay (Promega, Madison, Wis.) was performed according to the manufacturer's protocol. The compound concentration resulting in 50% luminescent signal was reported as the CC50 concentration.
Background: Cellular ATP, detected with luciferase, serves as a proxy for viable cell number.

Setting [3] is: Huh7 HCV genotype 1b replicon cells.

Usually IC50 stands for the concentration that gives 50% inhibition. Lower therefore signals greater potency. One may read the CC50 as the concentration at which the toxic effect on the cells reaches its halfway point. Low values mean greater toxicity to the cells, high ones lower toxicity to the cells. `COc1nc(N)nc2c1nc(I)n2[C@@H]1O[C@H](CO)[C@@H](O)[C@@]1(C)O` [Example 3, (2R,3R,4R,5R)-2-(2-Amino-8-iodo-6-methoxy-9H-purin-9-yl)-5-(hydroxymethyl)-3-methyltetrahydrofuran-3,4-diol] had an IC50 in series [1] of 6.1 µM. The compound further had a CC50 at 72 h in series [2] (setting [3]) greater than 100 µM.

As for `COc1nc(N)nc2c1nc(Br)n2[C@@H]1O[C@H](CO)[C@@H](O)[C@@]1(C)O` [Example 5, (2R,3R,4R,5R)-2-(2-Amino-8-bromo-6-methoxy-9H-purin-9-yl)-5-(hydroxymethyl)-3-methyltetrahydrofuran-3,4-diol], the concentration for half-maximal inhibition (IC50) in series [1] is greater than 100 µM. Besides, the cytotoxic concentration (CC50) at 72 h in series [2] (setting [3]) was greater than 100 µM.

As for `COc1nc(N)nc2c1nc(Cl)n2[C@@H]1O[C@H](CO)[C@@H](O)[C@@]1(C)O` [Example 6, (2R,3R,4R,5R)-2-(2-Amino-8-chloro-6-methoxy-9H-purin-9-yl)-5-(hydroxymethyl)-3-methyltetrahydrofuran-3,4-diol], the half-inhibitory concentration (IC50) in series [1] was greater than 100 µM. The compound also gave a 50% cytotoxic concentration (CC50) at 72 h in series [2] (setting [3]) greater than 100 µM.

For the compound `COc1nc(N)nc2c1nc(I)n2[C@@H]1O[C@H](COP(=O)(N[C@@H](C)C(=O)OCc2ccccc2)Oc2cccc3ccccc23)[C@@H](O)[C@@]1(C)O` (stereo partly drawn) [Example 7], half-maximal inhibition in series [1] (IC50) was put at 0.031 µM. This compound came in with a CC50 at 72 h in series [2] of 18 µM.

`COc1nc(N)nc2c1nc(I)n2[C@@H]1O[C@H](COP(=O)(N[C@@H](C)C(=O)OCc2ccc(F)cc2F)Oc2cccc3ccccc23)[C@@H](O)[C@@]1(C)O` (stereo partly drawn) [Example 8, (2S)-2,4-Difluorobenzyl 2-((((2R,3R,4R,5R)-5-(2-Amino-8-iodo-6-methoxy-9H-purin-9-yl)-3,4-dihydroxy-4-methyltetrahydrofuran-2-yl)methoxy)(naphthalen-1-yloxy)phosphorylamino)propanoate] returned an IC50 in series [1] of 0.009 µM. This compound also had a 50% cytotoxic concentration (CC50) at 72 h in series [2] of 8.1 µM.

For `CCCOC(=O)[C@H](C)NP(=O)(OC[C@H]1O[C@@H](n2c(I)nc3c(OC)nc(N)nc32)[C@](C)(O)[C@@H]1O)Oc1cccc2ccccc12` (stereo partly drawn) [Example 9, (2S)-Propyl 2-((((2R,3R,4R,5R)-5-(2-Amino-8-iodo-6-methoxy-9H-purin-9-yl)-3,4-dihydroxy-4-methyltetrahydrofuran-2-yl)methoxy)(naphthalen-1-yloxy)phosphorylamino)propanoate], half-maximal inhibition in series [1] (IC50) required 0.009 µM. This compound registered a half-maximal cytotoxic concentration (CC50) at 72 h in series [2] of 6 µM.

For `CCCCOC(=O)[C@H](C)NP(=O)(OC[C@H]1O[C@@H](n2c(I)nc3c(OC)nc(N)nc32)[C@](C)(O)[C@@H]1O)Oc1cccc2ccccc12` (stereo partly drawn) [Example 10, (2S)-Butyl 2-((((2R,3R,4R,5R)-5-(2-Amino-8-iodo-6-methoxy-9H-purin-9-yl)-3,4-dihydroxy-4-methyltetrahydrofuran-2-yl)methoxy)(naphthalen-1-yloxy)phosphorylamino)propanoate], the IC50 in series [1] worked out at 0.011 µM. The compound further had a CC50 at 72 h in series [2] of 7.9 µM.

In turn, `CCCCCOC(=O)[C@H](C)NP(=O)(OC[C@H]1O[C@@H](n2c(I)nc3c(OC)nc(N)nc32)[C@](C)(O)[C@@H]1O)Oc1cccc2ccccc12` (stereo partly drawn) [Example 11, (2S)-Pentyl 2-((((2R,3R,4R,5R)-5-(2-Amino-8-iodo-6-methoxy-9H-purin-9-yl)-3,4-dihydroxy-4-methyltetrahydrofuran-2-yl)methoxy)(naphthalen-1-yloxy)phosphorylamino)propanoate] returned an IC50 in series [1] of 0.012 µM. Further, it took 11 µM to reach half-maximal cytotoxicity in series [2] (CC50 at 72 h).

`COc1nc(N)nc2c1nc(I)n2[C@@H]1O[C@H](COP(=O)(N[C@@H](C)C(=O)OCC(C)(C)C)Oc2cccc3ccccc23)[C@@H](O)[C@@]1(C)O` (stereo partly drawn) [Example 12, (2S)-Neopentyl 2-((((2R,3R,4R,5R)-5-(2-Amino-8-iodo-6-methoxy-9H-purin-9-yl)-3,4-dihydroxy-4-methyltetrahydrofuran-2-yl)methoxy)(naphthalen-1-yloxy)phosphorylamino)propanoate] yielded a concentration for half-maximal inhibition (IC50) in series [1] of 0.02 µM. The same compound came in with a cytotoxic concentration (CC50) at 72 h in series [2] of 14 µM.

In series [1], `COc1nc(N)nc2c1nc(Br)n2[C@@H]1O[C@H](COP(=O)(N[C@@H](C)C(=O)OCC(C)(C)C)Oc2cccc3ccccc23)[C@@H](O)[C@@]1(C)O` (stereo partly drawn) [Example 13, (2S)-Neopentyl 2-((((2R,3R,4R,5R)-5-(2-Amino-8-bromo-6-methoxy-9H-purin-9-yl)-3,4-dihydroxy-4-methyltetrahydrofuran-2-yl)methoxy)(naphthalen-1-yloxy)phosphorylamino)propanoate] gave a half-inhibitory concentration (IC50) of 15 µM. In series [2], this compound had a CC50 at 72 h of 60 µM.

In series [1], `COc1nc(N)nc2c1nc(Cl)n2[C@@H]1O[C@H](COP(=O)(N[C@@H](C)C(=O)OCC(C)(C)C)Oc2cccc3ccccc23)[C@@H](O)[C@@]1(C)O` (stereo partly drawn) [Example 14, (2S)-Neopentyl 2-((((2R,3R,4R,5R)-5-(2-Amino-8-chloro-6-methoxy-9H-purin-9-yl)-3,4-dihydroxy-4-methyltetrahydrofuran-2-yl)methoxy)(naphthalen-1-yloxy)phosphorylamino)propanoate] had a 50% inhibitory concentration (IC50) greater than 10 µM. In series [2], half-maximal cytotoxicity (CC50 at 72 h) was put at 60 µM.

Regarding `COc1nc(N)nc2c1nc(I)n2[C@@H]1O[C@H](COP(=O)(N[C@@H](C)C(=O)OC2CCC2)Oc2cccc3ccccc23)[C@@H](O)[C@@]1(C)O` (stereo partly drawn) [Example 15, (2S)-Cyclobutyl 2-((((2R,3R,4R,5R)-5-(2-Amino-8-iodo-6-methoxy-9H-purin-9-yl)-3,4-dihydroxy-4-methyltetrahydrofuran-2-yl)methoxy)(naphthalen-1-yloxy)phosphorylamino)propanoate], inhibition in series [1] was half-maximal at 0.01 µM (IC50). Moreover, the CC50 at 72 h in series [2] was 6.8 µM.

The compound `COc1nc(N)nc2c1nc(I)n2[C@@H]1O[C@H](COP(=O)(N[C@@H](C)C(=O)OC2CCCC2)Oc2cccc3ccccc23)[C@@H](O)[C@@]1(C)O` (stereo partly drawn) [Example 16, (2S)-Cyclopentyl 2-((((2R,3R,4R,5R)-5-(2-Amino-8-iodo-6-methoxy-9H-purin-9-yl)-3,4-dihydroxy-4-methyltetrahydrofuran-2-yl)methoxy)(naphthalen-1-yloxy)phosphorylamino)propanoate] showed an IC50 in series [1] of 0.012 µM. Besides, the half-maximal cytotoxic concentration (CC50) at 72 h in series [2] turned out to be 13 µM.

`COc1nc(N)nc2c1nc(I)n2[C@@H]1O[C@H](COP(=O)(N[C@@H](C)C(=O)OC2CCCCC2)Oc2cccc3ccccc23)[C@@H](O)[C@@]1(C)O` (stereo partly drawn) [Example 17, (2S)-Cyclohexyl 2-((((2R,3R,4R,5R)-5-(2-Amino-8-iodo-6-methoxy-9H-purin-9-yl)-3,4-dihydroxy-4-methyltetrahydrofuran-2-yl)methoxy)(naphthalen-1-yloxy)phosphorylamino)propanoate] showed an IC50 in series [1] of 0.016 µM. This compound also gave a CC50 at 72 h in series [2] of 11 µM.

Regarding `COc1nc(N)nc2c1nc(I)n2[C@@H]1O[C@H](COP(=O)(N[C@@H](C)C(=O)OC2CCOCC2)Oc2cccc3ccccc23)[C@@H](O)[C@@]1(C)O` (stereo partly drawn) [Example 18, (2S)-Tetrahydro-2H-pyran-4-yl 2-((((2R,3R,4R,5R)-5-(2-Amino-8-iodo-6-methoxy-9H-purin-9-yl)-3,4-dihydroxy-4-methyltetrahydrofuran-2-yl)methoxy)(naphthalen-1-yloxy)phosphorylamino)propanoate], the half-inhibitory concentration (IC50) in series [1] came out at 0.018 µM. For the same compound, it took 26 µM to reach half-maximal cytotoxicity in series [2] (CC50 at 72 h).
